From article PMC7321065, “Discovery of New Schiff Bases Tethered Pyrazole Moiety: Design, Synthesis, Biological Evaluation, and Molecular Docking Study as Dual Targeting DHFR/DNA Gyrase Inhibitors with Immunomodulatory Activity” (Molecules, 2020)

Legend:
Pseudomonas aeruginosa = experiment: Inhibition zone, agar plate diffusion; assay type: cell-based; conditions: Pa, mm ± standard deviation, sample at 0.5 mg/mL, read-out: Inhibition zone (IZ)
Protocol: (§1) Antimicrobial activities of the newly formed Schiff bases (6a–d, 7a–d, 8a–d, and 9a–d) and reference drugs were evaluated against three Gram-positive, three Gram-negative, and two fungi strain at Al-Azhar University, Cairo, Egypt. The inhibition zones (IZ, in mm ± standard deviation) and the minimal inhibitory concentration (MIC) (μg/mL) were determined by the conventional paper disk diffusion method.
(§2) In Vitro Antimicrobial Activities
(§3) The antimicrobial activities inhibition zone (IZ, mm±standard deviation) of pyrazole Schiff bases ( 6a-d , 7a-d, 8a-d and 9a-d ) was measurement according to the agar plate diffusion method. Briefly, 100 µl of the […]
(§4) […] of each sample (at 0.5 mg/mL) was added to each well (10 mm diameter holes cut in the agar gel). The plates were incubated for 24 h at 37 °C (for bacteria and yeast) and for 72 h at 27 °C (for filamentous fungi), each test was repeated three times. After incubation, the microorganism's growth was observed. […]
(§5) drugs while Amphotericin B was used as standard antifungal drug. The resulting inhibition zone diameters were measured in millimeters and used as criterion for the antimicrobial activity. Solvent controls (DMSO) were included in every experiment as negative controls. DMSO was used for dissolving […]
(§6) the tested microorganisms. […]

Escherichia coli = experiment: Inhibition zone, agar plate diffusion; assay type: cell-based; conditions: Ec, mm ± standard deviation, sample at 0.5 mg/mL, read-out: Inhibition zone (IZ)
Protocol: as §1, §2, §3, §4, §5, §6

Bacillus subtilis = experiment: Inhibition zone, agar plate diffusion; assay type: cell-based; conditions: Bs, mm ± standard deviation, sample at 0.5 mg/mL, read-out: Inhibition zone (IZ)
Protocol: as §1, §2, §3, §4, §5, §6

Enterococcus faecalis = experiment: Inhibition zone, agar plate diffusion; assay type: cell-based; conditions: Ef, mm ± standard deviation, sample at 0.5 mg/mL, read-out: Inhibition zone (IZ)
Protocol: as §1, §2, §3, §4, §5, §6

Salmonella typhi = experiment: Inhibition zone, agar plate diffusion; assay type: cell-based; conditions: Salmonella enterica, St, mm ± standard deviation, sample at 0.5 mg/mL, read-out: Inhibition zone (IZ)
Protocol: as §1, §2, §3, §4, §5, §6
(§7) Bacteria were grown on nutrient agar medium, while fungi and yeast were grown on Sabouraud agar medium. […]

Fusarium oxysporum = experiment: Inhibition zone, agar plate diffusion; assay type: cell-based; conditions: Fo, mm ± standard deviation, sample at 0.5 mg/mL, read-out: Inhibition zone (IZ)
Protocol: as §1, §2, §3, §4, §5, §6, §7

Candida albicans = experiment: Inhibition zone, agar plate diffusion; assay type: cell-based; conditions: Ca, mm ± standard deviation, sample at 0.5 mg/mL, read-out: Inhibition zone (IZ)
Protocol: as §1, §2, §3, §4, §5, §6, §7

Staphylococcus aureus = experiment: Inhibition zone, agar plate diffusion; assay type: cell-based; conditions: Sa, mm ± standard deviation, sample at 0.5 mg/mL, read-out: Inhibition zone (IZ)
Protocol: as §1, §2, §3, §4, §5, §6, §7

Row | SMILES | zone of inhibition at 500 µg/mL (Pseudomonas aeruginosa) [mm] | zone of inhibition at 500 µg/mL (Escherichia coli) [mm] | zone of inhibition at 500 µg/mL (Bacillus subtilis) [mm] | zone of inhibition at 500 µg/mL (Enterococcus faecalis) [mm] | melting point [°C] | zone of inhibition at 500 µg/mL (Salmonella typhi) [mm] | zone of inhibition at 500 µg/mL (Fusarium oxysporum) [mm] | zone of inhibition at 500 µg/mL (Candida albicans) [mm] | zone of inhibition at 500 µg/mL (Staphylococcus aureus) [mm]
1 | COc1ccc(Nc2n[nH]c(N=Cc3cc(OC)c(OC)c(OC)c3)c2C(N)=O)cc1 [9a, 3-(p-Methoxyphenylamino)-5-(3,4,5-trimethoxybenzylideneamino)-1H-pyrazole-4-carboxamide] | 17 ± 0.2 | 22 ± 0.18 | 25 ± 0.21 | 19 ± 0.14 | 222 to 224 | 20 ± 0.33 | 19 ± 0.55 | 22 ± 0.19 | 21 ± 0.17
2 | COc1ccc(Nc2n[nH]c(N=Cc3cc(OC)c(OC)c(OC)c3)c2C(=O)Nc2ccc(C)cc2)cc1 [9c, 3-(p-Methoxyphenylamino)-N-p-tolyl-5-(3,4,5-trimethoxybenzylideneamino)-1H-pyrazole-4-carboxamide] | < 8 | 23 ± 0.44 | 22 ± 0.18 | 21 ± 0.72 | 234 to 236 | 23 ± 0.33 | 19 ± 0.28 | 21 ± 0.5 | 22 ± 0.34
3 | COc1ccc(Nc2n[nH]c(N=Cc3cc(OC)c(OC)c(OC)c3)c2C(=O)Nc2ccc(Cl)cc2)cc1 [9d, N-(p-Chlorophenyl)-3-(p-methoxyphenylamino)-5-(3,4,5-trimethoxybenzylideneamino)-1H-pyrazole-4-carboxamide] | < 8 | 15 ± 0.96 | 18 ± 0.12 | < 8 | 213 to 215 | 12 ± 0.61 | 14 ± 0.38 | 18 ± 0.2 | 16 ± 0.54
